Experimental data from patent US20060217368A1, “Drug for nerve regeneration” (Kyowa Hakko Kogyo Co., Ltd., priority 2003, published 2006).

Legend:
Assay type in all cases: cell-based, rat
ANSC-7 cells [1] = experiment: Neuropoiesis of ANSC-7 adult neural stem cells: number of Tuj1 positive neurons after induction of differentiation
Method: ANSC-7 cells which can be obtained by the method described in Reference Example 2 are plated at 1.8×10^5 cells per well in a 12-well culture dish which was coated with polyornithine and laminin and was filled with a DMEM/F12 medium containing 1 ml of a 1% N2 supplement (manufactured by Invitrogen Corporation) and 20 ng/ml FGF-2 (manufactured by PeproTech Inc.), and incubated overnight. Entire culture fluid is changed into a DMEM/F12 medium containing 0.5% fetal bovine serum and a 1% N2 supplement without including FGF2 (manufactured by Invitrogen Corporation, hereinafter, referred to as differentiation inducing medium) to induce differentiation. Upon the induction, the substance that inhibits the activity of GSK-3 serially diluted in PBS (manufactured by Invitrogen Corporation) or DMSO in the range of from 0.01 mmol/l to […] is added thereto in 1/1000 volume. As a negative control, the same volume of PBS or DMSO is added.
After changing the culture fluid into the differentiation inducing medium supplemented with each substance that inhibits the activity of GSK-3 every three days, and inducing differentiation for 6 days, it is replaced with a 15% neutral buffered formalin solution (Wako Pure Chemical Industries, Ltd.) to allow fixation for 20 min. Thereafter, washing with PBS containing 0.3% Triton X-100 (manufactured by Nacalai Tesque, Inc.) for 5 min is repeated three times. Next, after blocking the cells using a 10% goat fetal serum diluted in PBS (manufactured by DAKO Corporation) for 2 hrs, a reaction is allowed with a mouse anti-Tuj1 (β tubulin isotype III) antibody (manufactured by Sigma-Aldrich Corporation) diluted 1000 times in PBS as a primary antibody at 4° C. for 16 hrs. Thereafter, washing with PBS containing 0.3% Triton X-100 for 5 min is repeated three times.
Next, a reaction is allowed with Alexa Fluor 488 conjugate goat anti-mouse IgG antibody (manufactured by Molecular Probes, Inc.) diluted 1000 times as a secondary antibody at room temperature for 2 hrs. At the same time, Bisbenzimide H 33342 Fluorochrome, Trihydrochloride (manufactured by CALBIOCHEM, hereinafter, described as H33342) is added thereto to give the final concentration of 1 μg/ml to stain the nucleus. After immersing in PBS, observation with an inverted fluorescence microscope (manufactured by Nikon Corporation) is conducted, and the number of Tuj1 positive cells per 2.44 mm^2 is counted.

ANSC-7 cells [2] = experiment: Suppression of neuropoiesis by associated beta amyloid peptide and relief by GSK-3 inhibitor (Tuj1 positive neurons); details: day 6
Method: A beta amyloid peptide (hereinafter, referred to as Aβ) is a principal component constituting senile plaques, and it is a substance which has been believed to be a cause of Alzheimer's disease [Proc. Nat. Acad. Sci., USA, 98, 11039-11041 (2001)]. Aβ [1-40] (manufactured by BIOSOURCE) was dissolved in 0.1% (v/v) trifluoroacetic acid (Manufactured by Nacalai Tesque, Inc.) to give 10 mg/ml, and incubated at 25° C. for 1 hour. Thereafter, the solution was diluted in PBS to give 0.5 mg/ml. The diluted solution was incubated at 25° C. for 24 hrs to allow the formation of an associated product [J. Biol. Chem., 276, 42027-42034 (2001)]. […] On day 2 and day 4 following the induction of differentiation, the entire medium was changed to the differentiation inducing medium alone, respectively, and the number of neurons was measured on day 6 following induction of the differentiation.
According to a similar method to that shown in Experimental Example 8, lithiumchloride at a final concentration of 3 mmol/l, or Kenpaullone at a final concentration of 2 μmol/l was added to a differentiation inducing medium containing the associated Aβ at a final concentration of 0.1 mg/ml upon inducing differentiation of the ANSC-7 cell, and the number of Tuj1 positive neurons on day 6 following inducing differentiation was analyzed.

ANSC-7 cells [3] = experiment: Apoptosis of ANSC-7 cells (in situ cell death detection kit, fluorescein); details: final concentration 0.1 mg/ml; 6 days; vs PBS
Method: According to the method described in the above section 7, lithium chloride was added to give the final concentration of 3 mmol/l into the medium containing ANSC-7 cells followed by culture for 6 days. ANSC-7 cells thus cultured after adding lithium chloride, and ANSC-7 cells cultured after adding PBS as a control were allowed to a reaction using an in situ cell death detection kit, fluorescein (manufactured by Roche Diagnostics K.K.) according to the attached protocol. The cells were observed using an inverted fluorescence microscope (manufactured by Nikon Corporation), and the number of apoptotic cell was counted per 2.44 mm^2.
According to a similar method to that shown in Experimental Example 8, ANSC-7 cells subjected to induction of differentiation for 6 days by a differentiation inducing medium containing the associated Aβ at the final concentration of 0.1 mg/ml, and ANSC-7 cells subjected to induction of differentiation by a medium containing PBS as a control were allowed to react using an in situ cell death detection kit, fluorescein (manufactured by Roche Diagnostics K.K.) according to the attached protocol. The cells were observed using an inverted fluorescence microscope (manufactured by Nikon Corporation), and the number of apoptotic cells per 2.44 mm^2 was counted.

ANSC-7 cells [4] = experiment: Neuropoiesis of ANSC-7 adult neural stem cells: number of Tuj1 positive neurons after induction of differentiation; details: siRNA introduced into ANSC-7; day 6
GSK-3α = experiment: Amount of GSK-3α in ANSC-7 cells after siRNA introduction (Western blotting); details: 150 pmol per 1×10^6 ANSC-7 cells; 48 hrs following seeding
[5] = final concentration 2 μmol/l, day 6
[6] = final concentration 5 μmol/l, day 6

In the case of O=C1Cc2c([nH]c3ccc(Br)cc23)-c2ccccc2N1 [Kenpaullone, 9-bromo-7,12-dihydro-indolo[3,2-d][1]benzazepin-6(5H)-one], the “number of Tuj1 positive neurons in comparison with the negative control” value (ANSC-7 cells [1]; final concentration 0.5 μmol/l, day 6) is reported as 1.3 times, the “number of Tuj1 positive neurons in comparison with the negative control” value (ANSC-7 cells [1]; [5]) is reported as 2.7 times and the “number of Tuj1 positive neurons in comparison with the negative control” value (ANSC-7 cells [1]; [6]) is reported as 3.7 times. The “increase in number of Tuj1 positive neurons in comparison with associated Aβ alone” value (ANSC-7 cells [2]; 2 μmol/l with 0.1 mg/ml associated Aβ) was 400%.
With CC[C@H](CO)Nc1nc(NCc2ccccc2)c2ncn(C(C)C)c2n1 [Roscovitine] the “number of Tuj1 positive neurons in comparison with the negative control” value (ANSC-7 cells [1]; [5]) was 1.0 times, the “number of Tuj1 positive neurons in comparison with the negative control” value (ANSC-7 cells [1]; [6]) was 1.2 times and the “number of Tuj1 positive neurons in comparison with the negative control” value (ANSC-7 cells [1]; final concentration 10 μmol/l, day 6) was 1.1 times.
For Cn1cc(C2=C(c3ccc(Cl)cc3Cl)C(=O)NC2=O)c2ccccc21 [SB-216763, 3-(2,4-dichlorophenyl)-4-(1-methylindole-3-yl)-1H-pyrrole-2,5-dione], the “number of Tuj1 positive neurons relative to control” value (ANSC-7 cells [1]; final concentration 0.3 μmol/l, day 6) was 1.2 times and the “number of Tuj1 positive neurons relative to control” value (ANSC-7 cells [1]; final concentration 1.0 μmol/l, day 6) was 1.8 times.
In the case of C=C[C@@]1(C)CC(=O)[C@]2(O)[C@@]3(C)[C@@H](O)CCC(C)(C)[C@@H]3[C@H](O)[C@H](OC(C)=O)[C@@]2(C)O1 [forskolin], the “rate of increase in neurons” value (ANSC-7 cells [1]; 1 μmol/l, coexistence with 3 mmol/l lithium chloride) is reported as 1.2 times, the “rate of increase in neurons” value (ANSC-7 cells [1]; 1 μmol/l, without lithium chloride) is reported as 1.9 times and the “rate of increase in neurons” value (ANSC-7 cells [1]; 5 μmol/l, coexistence with 3 mmol/l lithium chloride) is reported as 1.1 times. For the same compound, the “rate of increase in neurons” value (ANSC-7 cells [1]; 5 μmol/l, without lithium chloride) was 2.2 times.
With [Cl-].[Na+] [sodium chloride] the “number of Tuj1 positive neurons relative to control” value (ANSC-7 cells [1]; final concentration 0.01 mmol/l, day 6 following induction of differentiation) was 1.0 times, the “number of Tuj1 positive neurons relative to control” value (ANSC-7 cells [1]; final concentration 0.1 mmol/l, day 6 following induction of differentiation) was 1.1 times and the “number of Tuj1 positive neurons relative to control” value (ANSC-7 cells [1]; final concentration 1 mmol/l, day 6 following induction of differentiation) was 1.2 times. For the same compound, the “number of Tuj1 positive neurons relative to control” value (ANSC-7 cells [1]; final concentration 3 mmol/l, day 6 following induction of differentiation) was 1.2 times.
“associated Aβ: beta amyloid peptide Aβ [1-40] incubated to form an associated product” was tested, and the “increase in number of apoptotic positive cells” value (ANSC-7 cells [3]) was 14% and the “decrease in number of Tuj1 positive neurons” value (ANSC-7 cells [2]; final concentration 0.1 mg/ml, vs PBS) was 78%.
With indirubin-3′-monoxime the “number of Tuj1 positive neurons in comparison with the negative control” value (ANSC-7 cells [1]; final concentration 1 μmol/l, day 6) was 1.4 times.
“siRNA-B1: double stranded siRNA having SEQ ID NO: 14 and 15, specific for GSK-3β (chain 1 GUCAGUUACACAGACACUAUU; chain 2 UAGUGUCUGUGUAACUGACUU; listed as RNA, chemistry not given here)” was tested, and the “number of Tuj1 positive neurons in comparison with the negative control siRNA” value (ANSC-7 cells [4]) was 2.5 times and the “amount of GSK-3α” value (GSK-3α) was “unchanged”.
“siRNA-B2: double stranded siRNA having SEQ ID NO: 16 and 17, specific for GSK-3β (chain 1 GUCUAGCCUAUAUCCAUUCUU; chain 2 GAAUGGAUAUAGGCUAGACUU; listed as RNA, chemistry not given here)” was tested, and the “number of Tuj1 positive neurons in comparison with the negative control siRNA” value (ANSC-7 cells [4]) was 1.9 times and the “amount of GSK-3α” value (GSK-3α) was “unchanged”.
